According to ChEMBL document CHEMBL1201862, “PubChem BioAssay data set” (2004):
The source made the active and inactive calls.

Columns and labels:
[1] = target: Peroxisome proliferator-activated receptor gamma/Nuclear receptor corepressor 2 (Homo sapiens, UniProt P37231+Q9Y618); assay: Counterscreen for NR2E3 inverse agonists: TR-FRET-based biochemical high throughput dose response assay to identify inverse agonists of the interaction between peroxisome proliferator-activated receptor gamma (PPARg) and nuclear receptor co-repressor 2 (NCOR2).; assay type: functional
[2] = target: Photoreceptor-specific nuclear receptor (Homo sapiens, UniProt Q9Y5X4); assay: ligands suppressing NR2E3 nuclear receptor activity – biochemical, TR-FRET, dose response (AID 463256); assay type: functional
Chain of Photoreceptor-specific nuclear receptor (Q9Y5X4 whole entry): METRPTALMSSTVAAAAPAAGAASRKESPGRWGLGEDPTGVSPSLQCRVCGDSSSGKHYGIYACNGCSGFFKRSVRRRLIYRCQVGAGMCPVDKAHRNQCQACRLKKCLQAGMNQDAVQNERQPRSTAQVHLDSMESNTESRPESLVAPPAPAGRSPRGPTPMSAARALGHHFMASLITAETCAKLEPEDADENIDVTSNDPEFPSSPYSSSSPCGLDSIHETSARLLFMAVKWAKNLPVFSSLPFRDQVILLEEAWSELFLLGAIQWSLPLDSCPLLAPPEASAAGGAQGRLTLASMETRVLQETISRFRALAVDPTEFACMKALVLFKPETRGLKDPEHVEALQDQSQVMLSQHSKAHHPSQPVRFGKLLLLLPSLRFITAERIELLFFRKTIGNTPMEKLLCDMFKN

[3] = target: Solute carrier family 12 member 2/member 5 (Homo sapiens, UniProt P55011+Q9H2X9); assay: KCC2 and NKCC1 inhibition by rubidium flux, cell-based, NKCC1 counter-screen (AID 1734); assay type: functional, HEK293
[4] = M. tuberculosis H37Rv growth inhibitors, H37Rv strain (AID 1626); assay type: functional
NADPH oxidase 1 = NADPH oxidase 1 (Homo sapiens, UniProt Q9Y5S8); assay: Late-stage luminescence-based cell-based dose response assay to identify inhibitors of NADPH oxidase 1 (NOX1): Purchased analogs 2.; assay type: functional
Chain of NADPH oxidase 1 (Q9Y5S8 whole entry): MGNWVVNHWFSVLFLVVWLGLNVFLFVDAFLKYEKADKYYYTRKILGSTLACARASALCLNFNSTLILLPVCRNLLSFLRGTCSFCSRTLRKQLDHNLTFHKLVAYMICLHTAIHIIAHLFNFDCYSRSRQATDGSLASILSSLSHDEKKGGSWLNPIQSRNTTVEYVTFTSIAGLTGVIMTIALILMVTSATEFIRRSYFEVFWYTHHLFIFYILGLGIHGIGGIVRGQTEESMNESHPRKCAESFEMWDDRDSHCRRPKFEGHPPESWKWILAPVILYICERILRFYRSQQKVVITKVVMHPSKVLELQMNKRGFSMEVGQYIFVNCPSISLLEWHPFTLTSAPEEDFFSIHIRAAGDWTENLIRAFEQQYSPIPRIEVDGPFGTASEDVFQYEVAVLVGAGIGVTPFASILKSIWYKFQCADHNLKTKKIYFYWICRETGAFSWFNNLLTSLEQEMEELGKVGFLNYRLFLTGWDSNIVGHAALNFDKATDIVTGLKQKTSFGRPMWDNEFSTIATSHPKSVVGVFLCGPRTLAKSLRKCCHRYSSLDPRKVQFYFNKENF

[5] = Luminescent dose response cell-based high throughput screening assay for inhibitors of the Janus kinase 2 mutant JAK2V617F. [Related pubchem assays: 1446 (Primary screen.), 1521 (Confirmation assay.), 1486 (Counter screen.)]; assay type: functional
Estrogen receptor = target: T1, Estrogen receptor (Homo sapiens, UniProt P03372); assay: ERα coactivator recruitment enhancers – biochemical, TR-FRET, ERα LBD, dose response (AID 737)
T1 sequence (P03372 whole entry): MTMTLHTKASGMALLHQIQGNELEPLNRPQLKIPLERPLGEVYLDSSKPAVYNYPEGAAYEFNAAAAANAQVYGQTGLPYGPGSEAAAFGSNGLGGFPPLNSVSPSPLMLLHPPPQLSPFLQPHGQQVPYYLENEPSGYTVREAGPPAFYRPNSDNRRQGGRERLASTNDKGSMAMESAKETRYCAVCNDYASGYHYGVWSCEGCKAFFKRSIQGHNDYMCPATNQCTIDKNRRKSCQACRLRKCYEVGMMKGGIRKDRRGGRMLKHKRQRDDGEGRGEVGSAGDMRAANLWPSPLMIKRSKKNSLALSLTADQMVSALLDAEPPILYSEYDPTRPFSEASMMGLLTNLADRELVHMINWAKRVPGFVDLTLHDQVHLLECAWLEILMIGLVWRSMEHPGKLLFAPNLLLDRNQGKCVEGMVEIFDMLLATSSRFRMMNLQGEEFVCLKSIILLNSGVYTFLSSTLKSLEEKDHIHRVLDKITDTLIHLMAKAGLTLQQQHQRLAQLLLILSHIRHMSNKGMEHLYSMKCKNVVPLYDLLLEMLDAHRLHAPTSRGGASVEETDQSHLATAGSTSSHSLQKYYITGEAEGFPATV

[6] = target: T2, E3 ubiquitin-protein ligase XIAP (Homo sapiens, UniProt P98170); assay: small molecules displacing peptide from XIAP – biochemical, IAP family, fluorescence polarization (AID 1018); assay type: functional
T2 sequence (P98170 whole entry): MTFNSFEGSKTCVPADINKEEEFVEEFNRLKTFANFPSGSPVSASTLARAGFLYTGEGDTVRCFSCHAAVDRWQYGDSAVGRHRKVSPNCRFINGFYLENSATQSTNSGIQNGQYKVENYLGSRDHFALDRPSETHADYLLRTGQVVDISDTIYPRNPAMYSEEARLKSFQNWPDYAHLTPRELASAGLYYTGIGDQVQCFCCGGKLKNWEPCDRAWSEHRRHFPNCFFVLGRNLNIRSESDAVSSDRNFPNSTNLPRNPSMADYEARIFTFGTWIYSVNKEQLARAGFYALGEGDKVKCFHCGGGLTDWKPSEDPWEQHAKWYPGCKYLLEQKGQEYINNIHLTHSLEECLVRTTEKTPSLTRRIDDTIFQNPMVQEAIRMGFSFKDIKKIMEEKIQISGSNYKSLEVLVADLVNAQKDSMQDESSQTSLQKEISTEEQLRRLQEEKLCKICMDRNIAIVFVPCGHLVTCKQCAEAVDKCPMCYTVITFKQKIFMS

[7] = target: T2, E3 ubiquitin-protein ligase XIAP; assay: Counter Screen using XIAP-Bir3 for Chemical Antagonists of Bir1/2 domains of IAP-family anti-apoptotic proteins. [Related pubchem assays (depositor defined):AID1018, AID1449, AID1514, AID1638, AID1749, AID1750, AID488957, AID488963]
[8] = target: Sphingosine 1-phosphate receptor 3 (Homo sapiens, UniProt Q99500); assay: Dose response cell-based high throughput screening assay for antagonists of the Sphingosine 1-Phosphate Receptor 3 (S1P3). [Related pubchem assays: 1429, 485 ]; assay type: functional
Chain of Sphingosine 1-phosphate receptor 3 (Q99500 whole entry): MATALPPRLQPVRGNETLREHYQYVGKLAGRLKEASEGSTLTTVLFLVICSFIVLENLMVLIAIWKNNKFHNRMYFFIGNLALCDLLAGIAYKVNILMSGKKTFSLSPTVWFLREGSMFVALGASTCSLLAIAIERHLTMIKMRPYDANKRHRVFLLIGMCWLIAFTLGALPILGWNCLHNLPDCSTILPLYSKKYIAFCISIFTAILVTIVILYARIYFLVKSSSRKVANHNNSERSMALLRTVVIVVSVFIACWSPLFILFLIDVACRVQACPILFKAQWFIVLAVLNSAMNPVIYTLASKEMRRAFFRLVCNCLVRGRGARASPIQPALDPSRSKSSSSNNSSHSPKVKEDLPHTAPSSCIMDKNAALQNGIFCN

[9] = target: 5-hydroxytryptamine receptor 1E (Homo sapiens, UniProt P28566); assay: Counterscreen assay for S1P3 antagonists: Dose response cell-based high throughput screening assay to identify antagonists of the 5-Hydroxytryptamine Receptor Subtype 1E (5HT1E). [Related pubchem assays: 1429, 485 ]; assay type: functional
Chain of 5-hydroxytryptamine receptor 1E (P28566 whole entry): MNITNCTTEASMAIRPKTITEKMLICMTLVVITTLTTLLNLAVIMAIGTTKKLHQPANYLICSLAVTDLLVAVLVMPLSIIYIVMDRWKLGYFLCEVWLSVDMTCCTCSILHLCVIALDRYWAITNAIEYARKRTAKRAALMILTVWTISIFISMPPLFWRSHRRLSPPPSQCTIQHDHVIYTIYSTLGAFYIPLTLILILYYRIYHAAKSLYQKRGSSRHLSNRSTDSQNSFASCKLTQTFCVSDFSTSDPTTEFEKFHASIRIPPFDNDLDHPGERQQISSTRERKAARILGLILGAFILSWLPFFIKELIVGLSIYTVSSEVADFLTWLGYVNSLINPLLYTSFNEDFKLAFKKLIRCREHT

Protein Tat = Protein Tat (Human immunodeficiency virus type 1 group M subtype B (isolate HXB2)(HIV-1), UniProt P04608); assay type: functional;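 further: tat binding to TAR RNA read out by fluorescence polarization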
Chain of Protein Tat (P04608 whole entry): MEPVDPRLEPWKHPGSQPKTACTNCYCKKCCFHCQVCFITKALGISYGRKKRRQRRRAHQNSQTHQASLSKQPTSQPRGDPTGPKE

14-3-3 protein gamma = 14-3-3 protein gamma (Homo sapiens, UniProt P61981); assay: modulators of 14-3-3 gamma client binding – dose response (AID 711); assay type: functional
Chain of 14-3-3 protein gamma (P61981 whole entry): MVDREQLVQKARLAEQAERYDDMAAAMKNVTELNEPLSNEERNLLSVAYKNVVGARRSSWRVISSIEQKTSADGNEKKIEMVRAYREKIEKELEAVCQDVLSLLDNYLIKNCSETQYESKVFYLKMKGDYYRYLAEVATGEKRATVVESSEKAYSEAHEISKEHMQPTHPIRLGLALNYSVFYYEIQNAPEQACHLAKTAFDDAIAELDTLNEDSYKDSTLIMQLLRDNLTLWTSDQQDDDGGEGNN

[10] = target: Epstein-Barr nuclear antigen 1 (Epstein-Barr virus (strain B95-8) (HHV-4) (Human herpesvirus 4), UniProt P03211); assay: inhibition of EBV nuclear antigen 1 DNA binding – biochemical, fluorescence polarization, 1536-well, dose response (AID 2381); set-up: species or system human gammaherpesvirus 4;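 further: fluorescence polarization of a Cy5 DNA probe bound by EBNA-1 protein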
[11] = target: Lytic switch protein BZLF1 (Epstein-Barr virus (strain B95-8) (HHV-4) (Human herpesvirus 4), UniProt P03206); assay: inhibition of BZLF1 ZTA DNA binding – biochemical, fluorescence polarization, Epstein-Barr virus, 1536-well, counter-screen for EBNA-1 inhibitor project, dose response (AID 2377); set-up: species or system human gammaherpesvirus 4;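 further: fluorescence polarization of Cy5-labelled ZRE DNA probe bound by purified Zta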
Chain of Lytic switch protein BZLF1 (P03206 whole entry): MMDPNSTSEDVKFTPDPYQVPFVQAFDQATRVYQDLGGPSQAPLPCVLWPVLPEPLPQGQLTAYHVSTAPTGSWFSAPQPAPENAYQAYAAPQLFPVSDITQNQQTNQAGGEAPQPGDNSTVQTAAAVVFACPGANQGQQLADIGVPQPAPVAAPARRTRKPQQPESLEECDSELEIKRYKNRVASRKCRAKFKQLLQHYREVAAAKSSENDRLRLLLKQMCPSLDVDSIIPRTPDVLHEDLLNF

[12] = target: T3, Rac GTPase-activating protein 1 (Homo sapiens, UniProt Q9H0H5); assay: blockers of MgcRacGAP-driven Rac1 GTP hydrolysis – biochemical, ADP Hunter fluorescence, primary and confirmatory, confirmation (AID 624330); assay type: functional
T3 sequence (Q9H0H5 whole entry): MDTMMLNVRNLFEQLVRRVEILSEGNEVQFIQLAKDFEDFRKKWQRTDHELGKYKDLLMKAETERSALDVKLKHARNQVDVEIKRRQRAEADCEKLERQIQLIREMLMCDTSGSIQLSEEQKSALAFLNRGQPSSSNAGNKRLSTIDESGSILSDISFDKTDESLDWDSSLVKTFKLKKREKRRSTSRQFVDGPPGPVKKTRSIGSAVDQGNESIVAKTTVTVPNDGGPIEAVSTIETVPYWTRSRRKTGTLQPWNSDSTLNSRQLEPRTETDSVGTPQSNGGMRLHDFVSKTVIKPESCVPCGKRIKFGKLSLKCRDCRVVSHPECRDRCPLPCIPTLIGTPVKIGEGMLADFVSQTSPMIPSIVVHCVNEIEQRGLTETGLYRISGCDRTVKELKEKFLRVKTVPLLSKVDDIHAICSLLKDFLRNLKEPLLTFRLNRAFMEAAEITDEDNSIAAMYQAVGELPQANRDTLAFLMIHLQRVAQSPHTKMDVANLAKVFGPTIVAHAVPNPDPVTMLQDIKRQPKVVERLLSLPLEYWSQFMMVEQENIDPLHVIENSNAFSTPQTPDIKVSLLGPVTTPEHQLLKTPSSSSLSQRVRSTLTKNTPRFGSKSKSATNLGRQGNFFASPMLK

Cytochrome P450 2D6 = Cytochrome P450 2D6 (Homo sapiens, UniProt P10635);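 further: CYP2D6 member of a cytochrome P450 panel assay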
Chain of Cytochrome P450 2D6 (P10635 whole entry): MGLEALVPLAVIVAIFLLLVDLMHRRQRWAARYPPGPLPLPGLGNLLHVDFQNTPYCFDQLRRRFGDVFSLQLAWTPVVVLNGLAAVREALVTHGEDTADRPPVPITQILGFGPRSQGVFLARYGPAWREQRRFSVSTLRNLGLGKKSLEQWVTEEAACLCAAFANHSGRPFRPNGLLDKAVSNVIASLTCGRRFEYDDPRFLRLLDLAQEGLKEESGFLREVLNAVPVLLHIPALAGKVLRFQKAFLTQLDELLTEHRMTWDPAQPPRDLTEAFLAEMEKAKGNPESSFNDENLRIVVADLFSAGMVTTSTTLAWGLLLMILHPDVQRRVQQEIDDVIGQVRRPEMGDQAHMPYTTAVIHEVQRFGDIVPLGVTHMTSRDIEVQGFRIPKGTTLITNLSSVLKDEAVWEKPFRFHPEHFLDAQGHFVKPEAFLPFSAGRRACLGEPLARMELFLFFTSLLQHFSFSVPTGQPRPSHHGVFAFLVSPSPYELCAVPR

[13] = target: T4, Mannose-6-phosphate isomerase (Homo sapiens, UniProt P34949); assay: MPI enzyme activity inhibition – biochemical, fluorescence intensity, coupled assay, primary screen (AID 1209)
T4 sequence (P34949 whole entry): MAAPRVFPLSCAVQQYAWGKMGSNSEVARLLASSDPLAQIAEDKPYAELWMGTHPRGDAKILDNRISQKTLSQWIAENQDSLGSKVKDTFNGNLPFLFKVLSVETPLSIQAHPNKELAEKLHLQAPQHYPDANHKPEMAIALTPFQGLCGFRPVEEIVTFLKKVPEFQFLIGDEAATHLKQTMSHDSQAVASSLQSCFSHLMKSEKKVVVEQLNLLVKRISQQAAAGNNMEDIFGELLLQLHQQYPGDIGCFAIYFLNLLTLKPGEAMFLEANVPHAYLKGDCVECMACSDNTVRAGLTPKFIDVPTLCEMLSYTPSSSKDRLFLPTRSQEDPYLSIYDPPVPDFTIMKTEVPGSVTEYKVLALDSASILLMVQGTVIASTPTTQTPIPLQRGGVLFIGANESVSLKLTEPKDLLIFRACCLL

Nonstructural protein 1 = Nonstructural protein 1 (Influenza A virus, UniProt Q194T2); assay type: functional, Influenza A virus (A/California/07/2009(H1N1))
Chain of Nonstructural protein 1 (Q194T2 whole entry): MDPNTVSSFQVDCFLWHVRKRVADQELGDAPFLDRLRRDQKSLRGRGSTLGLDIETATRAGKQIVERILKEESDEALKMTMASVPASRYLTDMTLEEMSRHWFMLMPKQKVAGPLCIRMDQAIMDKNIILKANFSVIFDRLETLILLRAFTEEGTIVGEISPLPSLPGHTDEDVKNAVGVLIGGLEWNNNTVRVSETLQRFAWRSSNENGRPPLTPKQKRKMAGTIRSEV

[14] = viability loss in HeLa cells – cytotoxicity control for MgcRacGAP inhibitor project, dose response (AID 624300); assay type: functional
[15] = viability loss in Vero cells – cytotoxicity control for Vif-APOBEC3G degradation inhibitor project, dose response (AID 1117358); assay type: functional; conditions: Vero
[16] = Luminescence Cell-Based Dose Confirmation to Identify Activators of 5'UTR Stem-Loop Driven Alpha-Synuclein mRNA Translation in H4 Neuroglioblastoma Cells. [Related pubchem assays: 1829 (Project Summary), 1814 (Primary HTS)]; assay type: functional
[17] = Luminescence Cell-Based Dose Response to Identify Activators of 5'UTR Stem-Loop Driven Prion Protein mRNA Translation in H4-C Neuroglioblastoma Cells. [Related pubchem assays: 1829 (Project Summary), 1814 (Primary HTS)]; assay type: functional
[18] = Luminescence Cell-Based Dose Response to Identify Activators of Luciferase Translation or Activity in H4-C Neuroglioblastoma Cells. [Related pubchem assays: 1829 (Project Summary), 1814 (Primary HTS)]; assay type: functional
[19] = Luminescence Cell-Based Dose Response HTS to Identify Activators of Luciferase Translation or Activity in H4 […] Cells. [Related pubchem assays: 1829 (Project Summary), 1814 (Primary HTS)]; assay type: functional
[20] = M. tuberculosis growth inhibition, HTS (AID 449762); assay type: functional
[21] = target: Disintegrin and metalloproteinase domain-containing protein 17 (Homo sapiens, UniProt P78536); assay: inhibition of ADAM17 substrate cleavage – biochemical, quenched FRET substrate, counter-screen for ADAM10 exosite inhibitor project, dose response (AID 743253)
Chain of Disintegrin and metalloproteinase domain-containing protein 17 (P78536 whole entry, the tested form may be a part): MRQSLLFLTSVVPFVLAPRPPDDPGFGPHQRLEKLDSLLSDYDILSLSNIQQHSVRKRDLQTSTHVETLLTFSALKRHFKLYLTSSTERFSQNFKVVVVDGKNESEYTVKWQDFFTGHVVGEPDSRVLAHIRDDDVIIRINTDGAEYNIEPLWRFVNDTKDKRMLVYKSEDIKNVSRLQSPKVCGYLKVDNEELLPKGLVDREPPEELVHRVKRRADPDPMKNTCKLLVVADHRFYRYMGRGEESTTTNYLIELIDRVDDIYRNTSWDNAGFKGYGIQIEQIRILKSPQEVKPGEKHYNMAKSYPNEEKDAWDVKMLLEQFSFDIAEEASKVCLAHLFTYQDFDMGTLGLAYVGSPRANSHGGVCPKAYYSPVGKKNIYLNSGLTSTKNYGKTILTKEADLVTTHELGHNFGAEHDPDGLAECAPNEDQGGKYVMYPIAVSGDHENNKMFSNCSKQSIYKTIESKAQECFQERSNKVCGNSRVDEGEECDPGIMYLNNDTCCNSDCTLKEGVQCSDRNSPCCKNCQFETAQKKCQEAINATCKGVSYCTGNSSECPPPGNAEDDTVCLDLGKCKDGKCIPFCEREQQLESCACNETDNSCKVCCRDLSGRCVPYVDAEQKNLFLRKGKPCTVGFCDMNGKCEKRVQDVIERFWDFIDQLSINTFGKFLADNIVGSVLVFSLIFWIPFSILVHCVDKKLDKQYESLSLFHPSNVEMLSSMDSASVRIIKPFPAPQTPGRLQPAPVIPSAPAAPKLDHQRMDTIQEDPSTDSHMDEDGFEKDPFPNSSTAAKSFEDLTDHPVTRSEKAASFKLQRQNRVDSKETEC

[22] = toxicity to human HepG2 hepatoma cells – cell-based, plate reader, dry powder samples, cytotoxicity control, dose response (AID 1159569); assay type: functional;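 further: inhibitor potency with signal falling toward the positive control level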
[23] = P. falciparum Dd2 growth inhibitors, dose response, SYBR Green, cherry-picked samples (AID 1159567); assay type: functional, cell-based
[24] = growth inhibition of yeast DHODH-expressing 3D7 parasites – SYBR Green, dry powder samples, dose response (AID 1159570); assay type: functional, cell-based;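 further: parasite growth measured after 72 hours of compound exposure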
[25] = Dd2 malaria parasite growth inhibition potency – SYBR Green, dry powder samples, dose response (AID 1159566); assay type: functional, cell-based;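 further: potency for growth inhibition with lower SYBR green DNA signal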
[26] = growth inhibition of PfATP4-mutant resistant parasites – NITD609-resistant line, SYBR Green, dry powder, dose response (AID 1159571); assay type: functional, cell-based;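 further: parasites synchronized at ring stage by sorbitol before testing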
[27] = Dd2 parasite growth inhibition in erythrocytes – SYBR Green, dry powder samples, set 9, dose response (AID 1159568); assay type: functional, cell-based
[28] = toxicity to human hepatoma HepG2 cells – cell-based, cherry-picked samples, cytotoxicity control, dose response (AID 1159577); assay type: functional
Estrogen receptor beta [29] = target: T5, Estrogen receptor beta (Homo sapiens, UniProt Q92731); assay: blockers of SRC-3 recruitment to ERβ – biochemical, ELISA, streptavidin-HRP readout, orthogonal assay, confirmation (AID 1060)
T5 sequence (Q92731 whole entry): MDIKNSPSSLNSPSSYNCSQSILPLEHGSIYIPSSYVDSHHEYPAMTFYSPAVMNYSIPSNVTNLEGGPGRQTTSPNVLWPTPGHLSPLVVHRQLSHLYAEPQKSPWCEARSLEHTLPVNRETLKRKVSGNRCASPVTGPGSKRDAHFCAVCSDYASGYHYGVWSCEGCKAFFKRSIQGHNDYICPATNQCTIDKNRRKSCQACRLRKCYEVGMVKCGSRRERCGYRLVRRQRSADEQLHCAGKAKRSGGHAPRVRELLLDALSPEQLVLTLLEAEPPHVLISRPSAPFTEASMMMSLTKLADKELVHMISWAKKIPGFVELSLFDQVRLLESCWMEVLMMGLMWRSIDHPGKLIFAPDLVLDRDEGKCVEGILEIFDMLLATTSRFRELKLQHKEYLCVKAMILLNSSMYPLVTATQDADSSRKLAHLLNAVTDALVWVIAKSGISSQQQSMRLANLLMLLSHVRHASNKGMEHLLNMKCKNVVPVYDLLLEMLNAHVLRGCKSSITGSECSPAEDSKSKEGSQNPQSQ

[30] = target: Heat shock protein HSP 90-alpha (Homo sapiens, UniProt P07900); assay: Luminescence-based dose response biochemical high throughput screening assay for inhibitors of the Heat Shock Protein 90 (HSP90). [Related pubchem assays: 1831 (Summary AID.), 1846 (Confirmation screen.), 1789 (Primary screen.)]
Estrogen receptor beta [31] = target: T5, Estrogen receptor beta

CC1(C)Cc2ccccc2-c2nnc(SCC(=O)N3CCc4ccccc43)n21
IC50 [1]: 7.95 µM (active) | IC50 [2]: 4.42 µM (active)

O=C(Cn1cnc2c(nnn2Cc2ccccc2)c1=O)N1CCCc2ccccc21
IC50 [3]: 6 µM (active)

CCOC(=O)c1ccc(NC(=O)Cn2cccc2)cc1
IC50 [4]: > 100 µM (active)

COc1ccc(/C=N/Nc2c(F)c(F)c(F)c(F)c2F)cc1
IC50 (NADPH oxidase 1): > 17 µM (not active)

COc1ccc(-c2cnc3c(c2)CCC3(C#N)C#N)cc1
IC50 [5]: 768 nM (active)

CCOC(=O)c1cc2c(c(CSc3nc4ccccc4c(=O)n3Cc3ccco3)c1)OCOC2
EC50 (Estrogen receptor): 3.27 µM (active)

O=C(Nc1ccccc1)c1cc(S(=O)(=O)N2CCSCC2)ccc1Cl
IC50 [6]: > 100 µM (not active) | IC50 [7]: > 100 µM (inactive)

Cc1ccccc1C(=O)N1CCN(c2ccc(NC(=O)c3ccc4c(c3)OCO4)cc2)CC1
IC50 [8]: > 50 µM (not active) | IC50 [9]: 13.7 µM (not active)

COC(=O)C(C)Sc1nnc(Cc2cc(O)nc(O)n2)n1-c1cc(C)ccc1C (stereo not drawn)
IC50 (Protein Tat): > 100 µM (active)

COc1ccc(C(=O)Oc2ccc(C(C)=O)cc2)c(OC)c1
IC50 (14-3-3 protein gamma): > 50 µM (not active)

Cc1ccc(/C=C2\SC(=S)N(CCC(=O)NNC(=O)c3ccc(O)cc3)C2=O)cc1
IC50 [10]: 11.6 µM (not active) | IC50 [11]: > 111 µM (not active)

CC(C)/N=c1\scc(-c2ccco2)n1/N=C/c1ccc(O)c(O)c1
IC50 [12]: 56.3 µM (active) | AC50 (Cytochrome P450 2D6): 14.1 µM (inconclusive) | IC50 [13]: > 50 µM (not active) | IC50 (Nonstructural protein 1): 39.3 µM (active) | CC50 [14]: 99.4 µM (active)

CCCCCO/C(O)=C1\C(C)=Nc2nnnn2C1c1ccccc1Cl (stereo not drawn)
CC50 [15]: > 40 µM (active)

C(=C\c1ccccc1)/C=N/Nc1nc2ccccc2s1
EC50 [16]: 366 nM (active) | EC50 [17]: 349 nM (active) | EC50 [18]: 289 nM (active) | EC50 [19]: < 100 nM (inconclusive) | IC50 [20]: > 100 µM (active) | IC50 [21]: > 69.5 µM (inactive)

CCCN(C)C[C@@H]1Oc2cc(C#Cc3cccnc3)ccc2S(=O)(=O)N([C@@H](C)CO)C[C@H]1C
AC50 [22]: 79.5 µM (active) | AC50 [23]: 2.13 µM (active) | AC50 [24]: 3.59 µM (active) | AC50 [25]: 2.62 µM (active) | AC50 [26]: 2.99 µM (active)

C[C@@H]1CCCCO[C@H](CN(C)S(=O)(=O)c2ccccc2)[C@@H](C)CN([C@@H](C)CO)C(=O)c2cc(NC(=O)Nc3ccc4c(c3)OCO4)ccc2O1
AC50 [27]: 1.64 µM (active)

CCS(=O)(=O)N1CC2(C1)[C@@H](c1ccccc1)[C@H](CO)N2Cc1ccc(F)cc1
AC50 [23]: 6 µM (active) | AC50 [28]: > 39 µM (inactive)

Cc1nc2cc(C(=O)O)ccc2[nH]1
IC50 (Estrogen receptor beta [29]): 99.5 µM (not active) | IC50 [30]: 7.21 µM (active) | IC50 (Estrogen receptor beta [31]): 24.7 µM (active)
